These are literature values, as cited in US9827197B2, “Diclofenac formulations and methods of use” (APR Applied Pharma Research s.a., priority 2005, dated 2017).

For data set [1] the following is noted: water at 25 degrees Celsius.
For data set [2] the following is noted: commercially available sugar coated tablets.

For `OC[C@@H](O)[C@@H](O)[C@H](O)[C@H](O)CO` [mannitol], the solubility in water in data set [1] is 22 g/100 ml.

As for `O=C(O)Cc1ccccc1Nc1c(Cl)cccc1Cl` [Diclofenac potassium], in data set [2], the terminal half life entry is recorded as “about 1.9 hours”.
